{"source": "patent US6375946B1", "about": "“Enhanced activation of natural killer cells using an NK cell activator and a hydrogen peroxide scavenger or inhibitor” (Maxim Pharmaceuticals, Inc., priority 1994, dated 2002)", "key": {"[1]": {"system": "monocytes", "assay": "Luminol-enhanced chemiluminescence (respiratory burst) of elutriated monocytes", "format": "cell-based, human", "procedure": "Formylmethionyl-leucyl-phenylalanine was dissolved to 10^−2 M in dimethyl sulfoxide and subsequently diluted in Krebs-Ringer phosphate buffer supplemented with glucose (10 mM), Ca^2+ (1 mM), and Mg^2+ (1.5 mM).\nIn a second set of experiments, effects of histamine and H2R-interactive compounds on the respiratory burst activity, as measured by the luminol-enhanced CL response of enriched, elutriated monocytes, were studied. Monocytes were treated with culture medium (control), histamine (10^−5 M), sodium azide (10^−5 M), or histamine and sodium azide as described below. Emission of CL was recorded after addition of fMLP at time=0.\nTo assess whether histamine acted by inhibiting the generation of H2O2 or by reducing the availability of peroxidase, we next studied the effects of histamine in monocytes treated with sodium azide to inhibit endogenous myeloperoxidase (MPO) and with exogenous, azide-insensitive peroxidase (HRP) in excess.\nTo exclude non-specific effects of ranitidine, we used a ranitidine analog (AH20239AA; […]; Glaxo) in which the thioether of ranitidine is replaced by an ether, thereby strongly reducing its H2R antagonist properties. In these experiments, monocytes were treated with histamine (10^−5 M) together with ranitidine or AH20239AA at final concentrations indicated in FIG. 7. All cells were treated with fMLP at time=0. Peak CL recorded in untreated monocytes (control) was 2.5×10^7 cpm."}, "[2]": {"system": "NK cells (cytotoxicity against K562 target cells)", "assay": "cells", "conditions": "for reversal of inhibition of NK cells induced by H2O2: catalase 20 U/ml, data not shown; for time of addition at which the NK cell suppressive signal is inhibited: histamine 10^−4 M or catalase 20 U/ml added at time points after assay start; for effect on NK-cell-mediated killing of tumor cells in the absence of monocytes: no monocytes, NK cells unactivated or IL-2 activated", "procedure": "Using blood obtained from a healthy human blood donor, we studied the effects of catalase on NK cell-mediated killing of tumor cells. K562 cells, from an NK sensitive erythroleukemic cell line, were used as target cells in all experiments. Washed cells (10×10^6 cells/ml) were incubated with ^51Cr (Amersham) at a concentration of 150 FCi/ml cell suspension for 2-4 hours. After centrifugation and resuspension in cell culture medium, 10^4 cells in 50 FL portions were added to the effector cells in microplate wells.\nIn the first set of experiments, human NK cells alone (1.5×10^5 cells/well) were added to the K562 target cells. […] The cells were then exposed to catalase (Boehringer-Mannheim) at concentrations of 0 to 100 U/ml. These same conditions were repeated using human NK cells admixed with 30% human peripheral blood monocytes, recovered by centrifugal elutriation, added to the target K562 cells.\nAfter incubation at 37EC for 16 hours, supernatant fluids were collected by a tissue collecting system (Amersham) and assayed for radioactivity in a gamma counter. Maximum ^51Cr release was determined in target cell cultures treated with Triton-X. NK cell cytotoxicity was calculated as cell lysis % according to the following formula: [formula]\nTo study the relationship between the monocyte-derived inhibitory signal and the respiratory burst activity of monocytes, we added catalase and various other scavengers of reactive oxygen metabolites to NK cells, alone or admixed with monocytes. We then measured the cytotoxicity of the NK cells against NK cell sensitive K562 target cells as described above.\nCell culture medium (control), histamine (10^−4 M), or catalase (20 U/ml), was added to either enriched NK cells alone or a mixture of NK cells and monocytes (1.5×10^5 cells/well). These mixtures were then incubated with K562 target cells in sextuplicate in microplates in a total volume of 200 Fl and assayed for microcytotoxicity.\nCulture medium (control) or H2O2 at concentrations between 0-10 FM was added to NK cell enriched lymphocytes for assay of cytotoxicity against ^51Cr K562 target cells as described above.\nMPO (100 U/ml) and H2O2 at concentrations between 0-10 FM were added to NK cell enriched lymphocytes for assay of cytotoxicity against ^51Cr K562 target cells as described above.\nA mixture of enriched NK cells and monocytes were treated with culture medium (control), histamine (10^−4 M), or catalase (20 U/ml) and assayed for microcytotoxicity against target K562 cells as described above in connection with Example 1. […] The data shown is cell lysis % ±s.e.m. of sextuplicates."}, "[3]": {"system": "RBC", "procedure": "(§1) Further, we used an assay system in which lysis of elutriated , ^51Cr -labelled RBC was measured in microplates."}, "[4]": {"system": "NK cells (cytotoxicity against K562 target cells)", "procedure": "In additional experiments, NK cell enriched lymphocytes were pretreated in petri dishes with culture medium (control), catalase or histamine, in the concentrations indicated below in Table II, in the presence or absence of monocytes. After 1 hour incubation, nonadherent lymphocytes were recovered, washed twice, and assayed for cytotoxicity as described above. We wished to determine whether the NK cell inhibitory signal was reversible by removal of monocytes and removal of monocyte-derived products. […] Data are cell lysis % ±s.e.m. of sextuplicates and are the results of 2 separate experiments."}, "[5]": {"system": "NK cells", "assay": "IL-2-induced NK cell proliferation (3H-methyl-thymidine incorporation)", "format": "cell-based, human", "conditions": "histamine 10^−4 M or catalase 20 U/ml, IL-2 50 U/ml, 48 hours", "procedure": "During the last 8 hours of incubation, cells were pulsed with ^3H-methyl-thymidine (specific activity […]; New England Nuclear Corp.; 1 FCi/2×10^5 cells). Following incubation, the cells were collected on glass fiber filters with an automatic cell harvester and cell-incorporated ^3H-methyl-thymidine was estimated by liquid scintillography."}, "[6]": {"conditions": "histamine 10^−4 M, cell free", "procedure": "The reaction mixture contained 0.8 ml elutriated monocytes (5×10^6 cells/ml).\nas §1"}, "[7]": {"system": "YAC-1 mouse lymphoma cells", "assay": "NK cell-mediated clearance of 51Cr-labeled YAC-1 lymphoma cells from lungs in vivo", "set-up": "species or system Swiss Albino mice", "conditions": "100 U/kg intravenously, 2 hours, four experiments", "procedure": "FIG. 2 graphically depicts the activation of NK cell-mediated clearance of YAC-1 lymphoma cells in vivo by catalase. Seventy-five thousand YAC-1 cells labeled with ^51Cr were injected intravenously into male or female 4-6-week-old Swiss Albino mice, together with vehicle (control; open bars) or catalase (100 U/kg; filled bars). Two hours after the inoculation of tumor cells, the mice were sacrificed by cervical dislocation. […] Results from 4 separate experiments are shown. Each bar represents the mean “s.e.m. of 3-5 animals.\nSeventy-five thousand ^51Cr-labeled, NK cell-sensitive YAC-1 mouse lymphoma cells were injected intravenously into male or female 4 to 6 week old Swiss Albino mice, together with vehicle (control) or 100 U/kg catalase. Two hours after inoculation with the tumor cells, the mice were sacrificed by cervical dislocation. The lungs were removed and placed in test tubes in a gamma-counter, and the radioactivity in the lung tissue was measured. The radioactivity in lung tissue is an inverse measure of NK cell-mediated killing of tumor cells in vivo (see Hanna et al., JNCI 65:801 (1980)), and is expressed as a percent of the ^51Cr that is retained in lungs immediately after inoculation of radiolabeled tumor cells."}}}
{"molecule": "CNC(=C[N+](=O)[O-])NCCOCc1ccc(CN(C)C)o1", "note": "[AH20239AA]", "values": [{"measurement": "potency relative to ranitidine in antagonizing inhibition of respiratory burst activity by histamine (fold less potent)", "setting": "[1]; histamine 10^−5 M", "result": "more than 100 fold"}, {"measurement": "potency relative to ranitidine in antagonizing effects of histamine on suppression of NK cell function by monocytes (fold less potent)", "setting": "[2]", "result": "more than 100 fold"}]}
{"molecule": "CN(C)CCCSC(=N)N", "note": "[Dimaprit]", "values": [{"measurement": "effect on the respiratory burst of monocytes (H2R-interactive compounds)", "setting": "[1]", "result": "mimicked the effect of histamine"}, {"measurement": "incubation time until effect on respiratory burst is maximal", "setting": "[1]; data not shown", "result": "10 to 15", "unit": "min"}]}
{"molecule": "OO", "note": "[H2O2, hydrogen peroxide]", "values": [{"measurement": "lysis of RBC", "setting": "[3]; H2O2 5×10^−5 M, 10^5 RBC", "result": "approximately 50%"}, {"measurement": "inhibition of NK cell cytotoxicity after pretreatment and washing", "setting": "[4]", "result": "sufficient to effectively inhibit"}, {"measurement": "effect on cytotoxicity of enriched NK cells", "setting": "[2]", "result": "effectively suppressed"}, {"measurement": "EC50", "setting": "[2]; Homo sapiens, K562, read-out: ED50 of suppression of NK cell cytotoxicity", "result": "~2", "unit": "µM"}]}
{"molecule": "CC(=O)N(O)CCCCCNC(=O)CCC(=O)N(O)CCCCCNC(=O)CCC(=O)N(O)CCCCCN", "note": "[deferox, deferoxamine]", "values": [{"measurement": "effect on monocyte-induced inhibition of baseline NK cell cytotoxicity", "setting": "[2]", "result": "ineffective"}]}
{"molecule": "NCCc1c[nH]cn1", "note": "[histamine]", "values": [{"measurement": "effect on level of RBC killing induced by H2O2", "setting": "[3]; histamine 10^−4 M", "result": "did not alter"}, {"measurement": "reversal of monocyte-induced inhibition of IL-2-induced NK cell proliferation", "setting": "[5]", "result": "effectively reverse"}, {"measurement": "time to block respiratory burst activity", "setting": "[1]; data not shown", "result": "within seconds"}, {"measurement": "effect on burst activity of unstimulated monocytes and induction of burst by fMLP", "setting": "[1]; histamine 10^−5 M", "result": "effectively inhibited"}, {"measurement": "effect on fMLP induced CL response with sodium azide and exogenous HRP in excess", "setting": "[1]; sodium azide 10^−5 M, HRP", "result": "inhibited"}, {"measurement": "CL recorded with H2O2 and/or MPO or H2O2 and HRP", "setting": "[6]", "result": "unchanged"}, {"measurement": "effect on monocyte-induced inhibition of baseline NK cell cytotoxicity", "setting": "[2]", "result": "abrogated"}, {"measurement": "concentration at which histamine abrogates monocyte induced suppression of NK cells", "setting": "[2]; NK cells with monocytes", "result": "exceeding 10^−7 M"}, {"measurement": "reversal of inhibition of NK cells induced by H2O2", "setting": "[2]", "result": "not"}, {"measurement": "effect of histamine on monocyte induced suppression of NK cells in the presence of catalase", "setting": "[2]; catalase present", "result": "ineffective"}, {"measurement": "time of addition at which the NK cell suppressive signal is inhibited", "setting": "[2]", "result": "within the first hour"}]}
{"molecule": "OC[C@@H](O)[C@@H](O)[C@H](O)[C@H](O)CO", "note": "[mannitol]", "values": [{"measurement": "effect on monocyte-induced inhibition of baseline NK cell cytotoxicity", "setting": "[2]", "result": "ineffective"}]}
{"molecule": "CN(C)CCSC(=N)N", "note": "[nor-dimaprit]", "values": [{"measurement": "effect on the respiratory burst of monocytes (H2R-interactive compounds)", "setting": "[1]", "result": "ineffective"}]}
{"molecule": "NCCS(=O)(=O)O", "note": "[taurin]", "values": [{"measurement": "effect on monocyte-induced inhibition of baseline NK cell cytotoxicity", "setting": "[2]", "result": "ineffective"}]}
{"molecule": "catalase", "values": [{"measurement": "reversal of monocyte-induced inhibition of IL-2-induced NK cell proliferation", "setting": "[5]", "result": "effectively reverse"}, {"measurement": "NK cell-mediated killing of YAC-1 lymphoma cells in vivo (retained lung radioactivity)", "setting": "[7]", "result": "augmented"}, {"measurement": "effect on monocyte-induced inhibition of baseline NK cell cytotoxicity", "setting": "[2]", "result": "completely abrogate"}, {"measurement": "concentration at which catalase reverses the monocyte suppressive signal", "setting": "[2]; NK cells with monocytes", "result": "exceeding 10 U/ml"}, {"measurement": "concentration at which catalase reverses the monocyte suppressive signal", "setting": "[2]; NK cells with monocytes, listed as Catalase", "result": "exceeding 5 U/ml"}, {"measurement": "reversal of inhibition of NK cells induced by H2O2", "setting": "[2]", "result": "completely reversed"}, {"measurement": "time of addition at which the NK cell suppressive signal is inhibited", "setting": "[2]", "result": "within the first hour"}, {"measurement": "effect on NK-cell-mediated killing of tumor cells in the absence of monocytes", "setting": "[2]", "result": "does not affect"}, {"measurement": "effect on NK-cell-mediated killing of tumor cells in the absence of monocytes", "setting": "[2]; listed as Catalase", "result": "had no effect"}]}
{"molecule": "superoxide dismutase [SOD]", "values": [{"measurement": "effect on monocyte-induced inhibition of baseline NK cell cytotoxicity", "setting": "[2]", "result": "did not alter"}]}
{"molecule": "myeloperoxidase (protein, UniProt P05164 165-745, looked up) Myeloperoxidase: VTCPEQDKYRTITGMCNNRRSPTLGASNRAFVRWLPAEYEDGFSLPYGWTPGVKRNGFPVALARAVSNEIVRFPTDQLTPDQERSLMFMQWGQLLDHDLDFTPEPAARASFVTGVNCETSCVQQPPCFPLKIPPNDPRIKNQADCIPFFRSCPACPGSNITIRNQINALTSFVDASMVYGSEEPLARNLRNMSNQLGLLAVNQRFQDNGRALLPFDNLHDDPCLLTNRSARIPCFLAGDTRSSEMPELTSMHTLLLREHNRLATELKSLNPRWDGERLYQEARKIVGAMVQIITYRDYLPLVLGPTAMRKYLPTYRSYNDSVDPRIANVFTNAFRYGHTLIQPFMFRLDNRYQPMEPNPRVPLSRVFFASWRVVLEGGIDPILRGLMATPAKLNRQNQIAVDEIRERLFEQVMRIGLDLPALNMQRSRDHGLPGYNAWRRFCGLPQPETVGQLGTVLRNLKLARKLMEQYGTPNNIDIWMGGVSEPLKRKGRVGPLLACIIGTQFRKLRDGDRFWWENEGVFSMQQRQALAQISLPRIICDNTGITTVSKNNIFMSNSYPRDFVNCSTLPALNLASWREAS", "values": [{"measurement": "potentiation of the suppressive effect of H2O2 on NK cells", "setting": "[2]; MPO 100 U/ml with H2O2 0-10 FM", "result": "did not potentiate"}, {"measurement": "scavenging of H2O2", "setting": "[2]; MPO 100 U/ml with H2O2 0-10 FM", "result": "slightly but significantly scavenged"}]}
